In patent US20250186437A1, “CARBOLINE COMPOUNDS AND USE THEREOF” (PTC Therapeutics, Inc., priority 2021, published 2025) one finds IC50 data, which are given here for 25 compounds.

As usually defined, the IC50 is the concentration that gives 50% inhibition.

In one assay the test system is MOLM-13 cells. The experiment in a line: MOLM-13 Cell Proliferation Assay (indicator of DHODH inhibition). The format is cell-based. The conditions noted are these: 72 Hours of culture, CellTiter-Glo, no uridine. In outline:
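Proliferation readout via CellTiter-Glo luminescence after 72 h compound treatment (37 °C, 5% CO2, 0.5% DMSO) of MOLM-13 cells seeded at 10^4 per well in RPMI 1640/10% FBS, used as a DHODH-inhibition indicator since these cells rely on de novo pyrimidine synthesis.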
In the case of `COC(=O)c1ncc([C@H]2c3[nH]c4ccc(Cl)cc4c3CCN2c2nc(C(F)(F)F)nc(C(F)(F)F)n2)cn1` [Compound 532, methyl 5-{(1S)-2-[4,6-bis(trifluoromethyl)-1,3,5-triazin-2-yl]-6-chloro-2,3,4,9-tetrahydro-1H-pyrido[3,4-b]indol-1-yl} pyrimidine-2-carboxylate], the IC50 came out at 8.1 nM.

The same assay, now with this note: Homo sapiens, 72 Hours of culture, CellTiter-Glo, no uridine.
On to `Cc1ccc([C@H]2c3[nH]c4ccc(Cl)cc4c3CCN2c2nc(C(F)F)nc(C(F)(F)F)n2)c(F)c1F` [Compound 510, (1S)-6-chloro-1-(2,3-difluoro-4-methylphenyl)-2-[4-(difluoromethyl)-6-(trifluoromethyl)-1,3,5-triazin-2-yl]-2,3,4,9-tetrahydro-1H-pyrido[3,4-b]indole], for which it took 0.1 nM to reach half-maximal inhibition (IC50). In other words, the sub-nanomolar range.

The compound `C[C@@H]1CN(c2ncc([C@H]3c4[nH]c5ccc(Cl)cc5c4CCN3c3nc(C(F)(F)F)cc(C(F)(F)F)n3)cn2)CCN1` [Compound 511, (1S)-2-[4,6-bis(trifluoromethyl)pyrimidin-2-yl]-6-chloro-1-{2-[(3R)-3-methylpiperazin-1-yl]pyrimidin-5-yl}-2,3,4,9-tetrahydro-1H-pyrido[3,4-b]indole] yielded a concentration for half-maximal inhibition (IC50) of 3.8 nM.

In turn, `FC(F)(F)c1cc(C(F)(F)F)nc(N2CCc3c([nH]c4ccc(Cl)cc34)[C@@H]2c2cnc(N3CCNC4(CC4)C3)nc2)n1` [Compound 512, (1S)-2-[4,6-bis(trifluoromethyl)pyrimidin-2-yl]-6-chloro-1-[2-(4,7-diazaspiro[2.5]octan-7-yl)pyrimidin-5-yl]-2,3,4,9-tetrahydro-1H-pyrido[3,4-b]indole] showed an IC50 of 1.6 nM.

In turn, `CN1CCN(c2ccc(C3c4[nH]c5ccc(-n6nccn6)cc5c4CCN3c3nccc(C(F)(F)F)n3)cn2)CC1` (stereo not shown) [Compound 513, 1-[6-(4-methylpiperazin-1-yl)pyridin-3-yl]-6-(2H-1,2,3-triazol-2-yl)-2-[4-(trifluoromethyl)pyrimidin-2-yl]-2,3,4,9-tetrahydro-1H-pyrido[3,4-b]indole] gave a half-inhibitory concentration (IC50) of 11.2 nM. Against the preceding compound, the IC50 is about 7-fold higher.

`FC(F)(F)c1cc(C(F)(F)F)nc(N2CCc3c([nH]c4ccc(-n5nccn5)cc34)[C@@H]2c2cnc(N3CCOCC3)nc2)n1` [Compound 514, (1S)-2-[4,6-bis(trifluoromethyl)pyrimidin-2-yl]-1-[2-(morpholin-4-yl)pyrimidin-5-yl]-6-(2H-1,2,3-triazol-2-yl)-2,3,4,9-tetrahydro-1H-pyrido[3,4-b]indole] had a half-maximal inhibitory concentration (IC50) of 0.6 nM.

`FC(F)(F)c1nc(N2CCc3c([nH]c4ccc(-n5nccn5)cc34)[C@@H]2c2cnc(N3CCOCC3)nc2)nc(C(F)(F)F)n1` [Compound 516, (1S)-2-[4,6-bis(trifluoromethyl)-1,3,5-triazin-2-yl]-1-[2-(morpholin-4-yl)pyrimidin-5-yl]-6-(2H-1,2,3-triazol-2-yl)-2,3,4,9-tetrahydro-1H-pyrido[3,4-b]indole] registered a concentration for half-maximal inhibition (IC50) of 1.4 nM.

`C[C@H]1CN(c2ncc([C@H]3c4[nH]c5ccc(Cl)cc5c4CCN3c3nc(C(F)(F)F)cc(C(F)(F)F)n3)cn2)CCN1` [Compound 517, (1S)-2-[4,6-bis(trifluoromethyl)pyrimidin-2-yl]-6-chloro-1-{2-[(3S)-3-methylpiperazin-1-yl]pyrimidin-5-yl}-2,3,4,9-tetrahydro-1H-pyrido[3,4-b]indole] displayed an IC50 of 3.2 nM.

For `Cc1ccc([C@H]2c3[nH]c4ccc(Br)cc4c3CCN2c2nc(C(F)(F)F)cc(C(F)(F)F)n2)c(F)c1F` [Compound 518, (1S)-2-[4,6-bis(trifluoromethyl)pyrimidin-2-yl]-6-bromo-1-(2,3-difluoro-4-methylphenyl)-2,3,4,9-tetrahydro-1H-pyrido[3,4-b]indole], half-maximal inhibition (IC50) required 0.8 nM.

The compound `Cc1ccc([C@H]2c3[nH]c4ccc(-n5nccn5)cc4c3CCN2c2nc(C(F)(F)F)cc(C(F)(F)F)n2)c(F)c1F` [Compound 519, (1S)-2-[4,6-bis(trifluoromethyl)pyrimidin-2-yl]-1-(2,3-difluoro-4-methylphenyl)-6-(2H-1,2,3-triazol-2-yl)-2,3,4,9-tetrahydro-1H-pyrido[3,4-b]indole] registered an IC50 of 0.3 nM.

As for `Cc1cnn(-c2ccc3[nH]c4c(c3c2)CCN(c2nc(C(F)(F)F)cc(C(F)(F)F)n2)[C@H]4c2ccc(C)c(F)c2F)n1` [Compound 520, (1S)-2-[4,6-bis(trifluoromethyl)pyrimidin-2-yl]-1-(2,3-difluoro-4-methylphenyl)-6-(4-methyl-2H-1,2,3-triazol-2-yl)-2,3,4,9-tetrahydro-1H-pyrido[3,4-b]indole], the half-maximal inhibitory concentration (IC50) was found to be 1.7 nM.

For the compound `Cc1ccc([C@H]2c3[nH]c4ccc(Cl)cc4c3CCN2c2nc(CO)nc(C(F)(F)F)n2)c(F)c1F` [Compound 521, {4-[(1S)-6-chloro-1-(2,3-difluoro-4-methylphenyl)-1,3,4,9-tetrahydro-2H-pyrido[3,4-b]indol-2-yl]-6-(trifluoromethyl)-1,3,5-triazin-2-yl}methanol], 3.3 nM corresponded to half-maximal inhibition (IC50).

Regarding `COc1ncc([C@H]2c3[nH]c4ccc(Cl)cc4c3CCN2c2nc(C(F)(F)F)nc(C(F)(F)F)n2)cn1` [Compound 522, (1S)-2-[4,6-bis(trifluoromethyl)-1,3,5-triazin-2-yl]-6-chloro-1-(2-methoxypyrimidin-5-yl)-2,3,4,9-tetrahydro-1H-pyrido[3,4-b]indole], it took 0.7 nM to reach half-maximal inhibition (IC50).

The compound `Cc1ccc([C@H]2c3[nH]c4ccc(Br)cc4c3CCN2c2nc(C(F)(F)F)nc(C(F)(F)F)n2)c(F)c1F` [Compound 523, (1S)-2-[4,6-bis(trifluoromethyl)-1,3,5-triazin-2-yl]-6-bromo-1-(2,3-difluoro-4-methylphenyl)-2,3,4,9-tetrahydro-1H-pyrido[3,4-b]indole] had an IC50 of 0.6 nM.

As to `Cc1ccc([C@H]2c3[nH]c4ccc(-n5nccn5)cc4c3CCN2c2nc(C(F)(F)F)nc(C(F)(F)F)n2)c(F)c1F` [Compound 524, (1S)-2-[4,6-bis(trifluoromethyl)-1,3,5-triazin-2-yl]-1-(2,3-difluoro-4-methylphenyl)-6-(2H-1,2,3-triazol-2-yl)-2,3,4,9-tetrahydro-1H-pyrido[3,4-b]indole], 0.3 nM corresponded to half-maximal inhibition (IC50).

The compound `Cc1cnn(-c2ccc3[nH]c4c(c3c2)CCN(c2nc(C(F)(F)F)nc(C(F)(F)F)n2)[C@H]4c2ccc(C)c(F)c2F)n1` [Compound 525, (1S)-2-[4,6-bis(trifluoromethyl)-1,3,5-triazin-2-yl]-1-(2,3-difluoro-4-methylphenyl)-6-(4-methyl-2H-1,2,3-triazol-2-yl)-2,3,4,9-tetrahydro-1H-pyrido[3,4-b]indole] had a 50% inhibitory concentration (IC50) of 1.3 nM.

`Cc1ccc([C@H]2c3[nH]c4ccc(Cl)cc4c3CCN2c2nc(CF)nc(C(F)(F)F)n2)c(F)c1F` [Compound 526, (1S)-6-chloro-1-(2,3-difluoro-4-methylphenyl)-2-[4-(fluoromethyl)-6-(trifluoromethyl)-1,3,5-triazin-2-yl]-2,3,4,9-tetrahydro-1H-pyrido[3,4-b]indole] returned an IC50 of 0.5 nM.

On to `Cc1ccc([C@H]2c3[nH]c4ccc([N+](=O)[O-])cc4c3CCN2c2nc(C(F)(F)F)nc(C(F)(F)F)n2)c(F)c1F` [Compound 527, (1S)-2-[4,6-bis(trifluoromethyl)-1,3,5-triazin-2-yl]-1-(2,3-difluoro-4-methylphenyl)-6-nitro-2,3,4,9-tetrahydro-1H-pyrido[3,4-b]indole], for which it took 0.6 nM to reach half-maximal inhibition (IC50).

In turn, `COc1ccc2[nH]c3c(c2c1)CCN(c1nc(C(F)(F)F)cc(C(F)(F)F)n1)[C@H]3c1ccc(C)c(F)c1F` [Compound 528, (1S)-2-[4,6-bis(trifluoromethyl)pyrimidin-2-yl]-1-(2,3-difluoro-4-methylphenyl)-6-methoxy-2,3,4,9-tetrahydro-1H-pyrido[3,4-b]indole] displayed an IC50 of 1.2 nM.

For the compound `Cc1cnn(-c2ccc3[nH]c4c(c3c2)CCN(c2nc(C(F)(F)F)nc(C(F)(F)F)n2)[C@H]4c2ccc(C)c(F)c2F)c1` [Compound 529, (1S)-2-[4,6-bis(trifluoromethyl)-1,3,5-triazin-2-yl]-1-(2,3-difluoro-4-methylphenyl)-6-(4-methyl-1H-pyrazol-1-yl)-2,3,4,9-tetrahydro-1H-pyrido[3,4-b]indole], inhibition was half-maximal at 4.1 nM (IC50).

For the compound `Cc1ccn(-c2ccc3[nH]c4c(c3c2)CCN(c2nc(C(F)(F)F)nc(C(F)(F)F)n2)[C@H]4c2ccc(C)c(F)c2F)n1` [Compound 530, (1S)-2-[4,6-bis(trifluoromethyl)-1,3,5-triazin-2-yl]-1-(2,3-difluoro-4-methylphenyl)-6-(3-methyl-1H-pyrazol-1-yl)-2,3,4,9-tetrahydro-1H-pyrido[3,4-b]indole], inhibition was half-maximal at 10.9 nM (IC50).

Turning to `CN(C)CCNc1ncc([C@H]2c3[nH]c4ccc(Cl)cc4c3CCN2c2nc(C(F)(F)F)nc(C(F)(F)F)n2)cn1` [Compound 531, N^2-(5-{(1S)-2-[4,6-bis(trifluoromethyl)-1,3,5-triazin-2-yl]-6-chloro-2,3,4,9-tetrahydro-1H-pyrido[3,4-b]indol-1-yl}pyrimidin-2-yl)-N^1,N^1-dimethylethane-1,2-diamine], the IC50 was 5 nM.

`CC(=O)c1ncc([C@H]2c3[nH]c4ccc(Cl)cc4c3CCN2c2nc(C(F)(F)F)nc(C(F)(F)F)n2)cn1` [Compound 533, 1-(5-{(1S)-2-[4,6-bis(trifluoromethyl)-1,3,5-triazin-2-yl]-6-chloro-2,3,4,9-tetrahydro-1H-pyrido[3,4-b]indol-1-yl}pyrimidin-2-yl)ethan-1-one] returned an IC50 of 4.7 nM.

Regarding `COCCOc1ncc([C@H]2c3[nH]c4ccc(Cl)cc4c3CCN2c2nc(C(F)(F)F)nc(C(F)(F)F)n2)cn1` [Compound 534, (1S)-2-[4,6-bis(trifluoromethyl)-1,3,5-triazin-2-yl]-6-chloro-1-[2-(2-methoxyethoxy)pyrimidin-5-yl]-2,3,4,9-tetrahydro-1H-pyrido[3,4-b]indole], the IC50 came out at 0.8 nM.

Take `OCCNc1ncc([C@H]2c3[nH]c4ccc(Cl)cc4c3CCN2c2nc(C(F)(F)F)nc(C(F)(F)F)n2)cn1` [Compound 535, 2-[(5-{(1S)-2-[4,6-bis(trifluoromethyl)-1,3,5-triazin-2-yl]-6-chloro-2,3,4,9-tetrahydro-1H-pyrido[3,4-b]indol-1-yl}pyrimidin-2-yl)amino]ethan-1-ol]: half-maximal inhibition (IC50) was put at 0.7 nM.
